Results: article PMC9571594, “Development of Semisynthetic Apoptosis-Inducing Agents Based on Natural Phenolic Acids Scaffold: Design, Synthesis and In-Vitro Biological Evaluation” (Molecules, 2022)
“And” between values parts separate entries of the source, which are not always exact repeats. Identical values can stand only once. Like-named read-outs stand apart in the source and are kept apart here.

What was measured:
[1] = system: Caco-2 cancer cell line; assay: MTT cell viability assay, Caco-2; assay type: cell-based; conditions: for viability at 15.625 µg/mL / viability at 31.25 µg/mL / viability at 62.5 µg/mL / viability at 125 µg/mL / viability at 250 µg/mL / viability at 500 µg/mL / IC50: Homo sapiens, Caco-2
Method: MCF-7 cells (Human breast adenocarcinoma), HepG2 (human hepatocellular carcinoma), A549 (human lung adenocarcinoma), Caco-2 (colon carcinoma), PANC-1 (human pancreatic cancer), and Vero cells (derived from normal kidney cells) were supplied by (Holding Company for Biological Products and Vaccines VACSERA; Giza, Egypt). The cells were cultured in PRMI 1640 medium (Lonza, Switzerland) supplemented with 10% fetal bovine serum (Gibco), 1% penicillin and 1% streptomycin (Sigma Aldrich, Saint Louis, MO, USA) at 37 °C under an atmosphere of 5% CO2 and 95% air.
The effect of parent compounds and their derivatives were assessed by (3-(4,5-dimethylthiazol-2-yl)-2,5diphenyl-tetrazolium bromide) MTT assay. […] After a merged sheet of cells developed, the growth media was decanted from the 96-well microtiter and refilled with different concentrations of compounds (µg/mL), and the plate was incubated at 37 °C for 48 h to minimize exposure to the dissolving agent (Supporting Information).
MTT solution (BIO BASIC CANADA INC) was prepared [5 mg/mL in phosphate buffered saline (PBS)], added to each well and incubated for 4 h, then after removing the media, 200 μL of DMSO was added to each well to solubilize the formazan crystals and the optical density of the formazan product was measured at 560 nm using microplate reader (mindray, MR-96A). The results were calculated as the mean of the three independent experiments. […]
Determination of sample cytotoxicity on cells (MTT protocol) […]
well) and incubated at 37°C for 24 hours to develop a complete monolayer sheet.
2- Growth medium was decanted from 96 well micro titer plates after confluent sheet of cells were formed, cell monolayer was washed twice with wash media.
3- two-fold dilutions of tested sample was made in RPMI medium with 2% serum […]
4- 0.1 ml of each dilution was tested in different wells leaving 3 wells as control, receiving only maintenance medium.
5- Plate was incubated at 37°C and examined. Cells were checked for any physical signs of toxicity, e.g. partial or complete loss of the monolayer, rounding, shrinkage, […]
6- MTT solution was prepared (5mg/ml in PBS) (BIO BASIC CANADA INC).
8- 20ul MTT solution were added to each well. Place on a shaking table, 150rpm for 5 minutes, to thoroughly mix the MTT into the media.
10) Dump off the media. (dry plate on paper towels to remove residue if necessary. […] 9 ش - ايلعلا هبضهلا - مطقملا / ىسيئرلا لمعملا […]

[2] = system: Caco-2 cells; assay: Cell-cycle analysis by flow cytometry; assay type: cell-based; conditions: Caco-2 cells; for %G0–G1 / %G2/M / %S: cell-cycle distribution after treatment; for %Pre-G1: Pre-G1 = apoptotic population
Method: The potential candidates with anti-tumor effect on the Caco-2 cell line along with a high SI were chosen for cell-cycle analysis. The cell-cycle distribution and cell death were analyzed using Annexin V-FITC/PI staining and flow cytometry (Table 4, Figure 4).
In order to determine the percentage of viable, apoptotic and necrotic cells after treatment with our compounds, double-staining with fluorescein isothiocyanate (FITC) and PI was performed. Annexin V-FITC Apoptosis Detection Kit (BioVision, CA, USA) was used. Briefly, cultured Caco-2 were treated with the tested compounds or DMSO for 24h. Cells were then collected by centrifugation at 2000 rpm for 5 min, and the pellet was washed with PBS then centrifuged again at 2000 rpm for 5 min then resuspended in 500μL of the kit’s binding buffer before adding the Annexin V-FITC and PI. The cells were then incubated at room temperature in the dark for 5 min. […]
Assay : Cell Cycle Analysis
Kit used : ab139418_Propidium Iodide Flow Cytometry Kit/BD
Assay samples :Cell culture
Cpd. No. Cpd. No. Cpd. No. Cpd. No.

[3] = Caco2, MTT report T-4-019-5, Conc. ug/ml, read-out: IC50
[4] = MTT, 48 h, average of triplicates, parent compounds and doxorubicin (Table 2), read-out: IC50 (μM) ± SD Caco-2

SMILES | Toxicity % ([1]; Caco2, 15.625 ug/ml) [%] | Toxicity % ([1]; Caco2, 31.25 ug/ml) [%] | Toxicity % ([1]; Caco2, 62.5 ug/ml) [%] | Toxicity % ([1]; Caco2, 125 ug/ml) [%] | Toxicity % ([1]; Caco2, 250 ug/ml) [%] | Toxicity % ([1]; Caco2, 500 ug/ml) [%] | viability at 15.625 µg/mL ([1]; Caco2, 15.625 ug/ml) [%] | viability at 31.25 µg/mL ([1]; Caco2, 31.25 ug/ml) [%] | viability at 62.5 µg/mL ([1]; Caco2, 62.5 ug/ml) [%] | viability at 125 µg/mL ([1]; Caco2, 125 ug/ml) [%] | viability at 250 µg/mL ([1]; Caco2, 250 ug/ml) [%] | viability at 500 µg/mL ([1]; Caco2, 500 ug/ml) [%] | IC50 [1, 3] [µg/mL] | IC50 [1, 4] [µM] | %Pre-G1 [2] | further results
O=C(O)/C=C/c1ccc(O)c(O)c1 [Compound 1, Caffeic acid] | 0.09606 | 10.47 | 52.83 | 74.26 | 79.92 | 88.09 | 99.9 | 89.5 | 47.2 | 25.7 | 20.1 | 11.9 | 81.2 | 410 | 11.31 ± 0.81% | %G0–G1 [2]: 46.29 ± 3.1%; %G2/M [2]: 20.49 ± 1.92%; %S [2]: 33.22 ± 1.99%; %G0–G1 ([2]; listed as s1): 46.29%; %G2/M ([2]; listed as s1): 20.49%; %S ([2]; listed as s1): 33.22%; %Pre-G1 ([2]; listed as caffeic acid): 11.31%
COc1cc(/C=C/C(=O)O)ccc1O [Compound 2, Ferulic acid] | 0.2882 | 9.414 | 22.57 | 70.61 | 88.18 | 84.34 | 99.7 | 90.6 | 77.4 | 29.4 | 11.8 | 15.7 | 96.4 | 410 | 13.22% and 13.22 ± 0.63% | –
